Literature values as cited in US20090155355A1, “Particles in a capsule” (Multi Formulations Ltd., priority 2007, published 2009).
Entries after “also recorded” stand apart in the source; their conditions may differ.

Legend:
[1] = in vivo
[2] = combination with acetaminophen or ibuprofen
[3] = oral, single 400 mg dose, humans

CC(=O)Nc1ccc(O)cc1 [Acetaminophen]
plasma half-life [1]: about 2 hrs
time of peak plasma levels [1]: 0.5 to 2 h

Cn1c(=O)c2c(ncn2C)n(C)c1=O [caffeine, Caffeine]
half-life (mean time) (highly variable): about 5 hrs
time to peak levels (in vivo): about 1 hr
effect on analgesics [2]: enhance and prolong the effects of acetaminophen; also recorded: enhance the analgesic effects of ibuprofen

CC(C)Cc1ccc(C(C)C(=O)O)cc1 (stereo not drawn) [ibuprofen, Ibuprofen]
time to maximum plasma concentration [3]: about 1.3 hrs
